Measurements: ChEMBL document CHEMBL1157230, “Bacterial biofilm inhibitors from Diospyros dendo” (2006)

System: Pseudomonas aeruginosa
Assay: Antibacterial activity against Pseudomonas aeruginosa PAO1 assessed as inhibition of biofilm formation at 10 ug/ml after 24 hrs
Type: functional
Settings: PAO1, 24 h

Structure (SMILES) | inhibition at 10 µg/mL [%]
COc1cc(/C=C/C(=O)O[C@H]2[C@H](O)C[C@]3(C)[C@H]4CC=C5[C@@H]6[C@@H](C)[C@H](C)CC[C@]6(C(=O)O)CC[C@@]5(C)[C@]4(C)CC[C@H]3C2(C)C)ccc1O | 48
C[C@H]1[C@H](C)CC[C@]2(C(=O)O)CC[C@]3(C)C(=CC[C@@H]4[C@@]5(C)CC[C@H](O)C(C)(C)[C@@H]5CC[C@]43C)[C@H]12 [URSOLIC ACID] | 35
C[C@H]1[C@H](C)CC[C@]2(C(=O)O)CC[C@]3(C)C(=CC[C@@H]4[C@@]5(C)C[C@@H](O)[C@H](OC(=O)/C=C/c6ccc(O)cc6)C(C)(C)[C@@H]5CC[C@]43C)[C@H]12 | 35
C[C@@H]1[C@H]2C3=CC[C@@H]4[C@@]5(C)CC[C@H](OC(=O)/C=C\c6ccc(O)cc6)C(C)(C)[C@@H]5CC[C@@]4(C)[C@]3(C)CC[C@@]2(C(=O)O)CC[C@]1(C)O | 62
C[C@H]1[C@H](C)CC[C@]2(C(=O)O)CC[C@]3(C)C(=CC[C@@H]4[C@@]5(C)C[C@@H](O)[C@H](OC(=O)/C=C\c6ccc(O)cc6)C(C)(C)[C@@H]5CC[C@]43C)[C@H]12 | 32
